Laboratory results reported in patent US20190099383A1, “Transdermal Delivery of Selexipag Metabolite” (Samos Pharmaceuticals, Inc., priority 2017, published 2019).
Read-outs that look alike come from different tables or passages of the source.

Tests used:
[1] = In vitro unenhanced skin flux, Franz diffusion cells; assay type: in vitro ADME, human; conditions: 168 hour period, saturated solution in 80/20% ethanol/water, no enhancers
Method: All in vitro skin permeation studies are conducted using the PermeGear Membrane Transport System. […] Skin flux studies are run for a period of 168 hours. […] The receiver compartment is refilled with fresh receiver medium.

[2] = Saturation concentration of the drug in the receptor medium; assay type: physicochemical; conditions: pH 7.4 water with 0.44 mg/ml OLETH 20
[3] = Formulation B enhancer system, 2, 4, 8, 12 and 24 hour time points (FIG. 1)
Method: One skin donor and three diffusion cells per formulation were used in these in vitro skin permeation experiments. Split thickness dermatomed (approximately at 375 μm) human cadaver skin was used to determine the permeation rate of the selexipag metabolite ACT 333679 in vitro. All in vitro skin permeation studies were conducted using the PermeGear Membrane Transport System (PermeGear, Inc., Hellertown, Pa.). Each Membrane Transport System consists of vertical, jacketed (37° C.±0.5° C.) Franz diffusion cells with magnetic stirrer and 1.7 cm^2 diffusion area.
Skin flux studies were run for a period of 48 hours. At predetermined intervals (3, 24 and 48 hours) after starting the experiment, the entire contents of the receiver compartment were collected for determination of the ACT 333679 concentration by HPLC. The receiver compartment was refilled with fresh receiver medium. The receiver medium was pH 7.4 water with 0.44 mg/ml of OLETH 20 (polyethylene glycol ether of oleyl alcohol) with the saturation concentration of the drug in the receptor medium being 0.23 mg/ml or 2 mg total in the receptor phase. […]
One skin donor and three diffusion cells per formulation were used in these in vitro skin permeation experiments. […] Samples in the receptor phase were obtained at the 2, 4, 8, 12 and 24 hour intervals and the amount of selexipag or ACT333679 was determined by HPLC.

prostacyclin IP receptor = prostacyclin IP receptor (Homo sapiens, UniProt P43119); conditions: ACT 333679 versus selexipag; cited from earlier work
Sequence of prostacyclin IP receptor (P43119 whole entry): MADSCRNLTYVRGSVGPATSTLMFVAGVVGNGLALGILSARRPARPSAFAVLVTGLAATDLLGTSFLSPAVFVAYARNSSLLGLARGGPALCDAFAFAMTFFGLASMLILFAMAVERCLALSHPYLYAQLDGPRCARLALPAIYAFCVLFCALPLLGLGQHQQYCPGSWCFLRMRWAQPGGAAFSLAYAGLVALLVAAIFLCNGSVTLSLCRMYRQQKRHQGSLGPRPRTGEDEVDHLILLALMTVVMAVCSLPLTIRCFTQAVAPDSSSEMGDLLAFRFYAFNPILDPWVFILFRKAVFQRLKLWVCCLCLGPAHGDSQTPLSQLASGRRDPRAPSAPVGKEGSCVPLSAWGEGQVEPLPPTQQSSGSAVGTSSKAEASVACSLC

[4] = rat; cited from earlier work
[5] = cited from earlier work
carboxylesterases = conditions: cited from earlier work
[6] = headache, diarrhea, pain in the jaw, nausea and myalgia; cited from earlier work

saturation amount, total in the receptor phase [2] [mg] | saturation concentration of the drug in the receptor medium [2] [mg/mL] | permeation through skin compared with selexipag [3] | Compound | average flux [1] | potency relative to selexipag (prostacyclin IP receptor) | oral bioavailability [4] [%] | effect of presence of food on AUC ([5]; presence of food) [%] | absorption ([5]; oral) [%] | metabolism of selexipag to ACT 333679 (carboxylesterases; carboxylases present in human plasma) | metabolism of selexipag to ACT 333679 (carboxylesterases; human hepatic microsomes) | difference in incidence of side effects between selexipag and placebo [6]
2 | 0.23 | higher than that of selexipag | CC(C)N(CCCCOCC(=O)O)c1cnc(-c2ccccc2)c(-c2ccccc2)n1 [ACT 333679] | 2.9 micrograms per square centimeter per hour | at least 16 times | 57 | 27 |  |  |  | 
 |  |  | CC(C)N(CCCCOCC(=O)NS(C)(=O)=O)c1cnc(-c2ccccc2)c(-c2ccccc2)n1 [selexipag] | 1.2 micrograms per square centimeter per hour |  |  |  | ~60 | do not metabolize selexipag to ACT 333679 | metabolized to ACT 333679 from hepatic microsomes | higher than 10%
